# Assay results as given in patent US9932637B2, “Genetic polymorphisms associated with cardiovascular disorders and drug response, methods of detection and uses thereof” (CELERA CORPORATION, priority 2003, dated 2018).
# Tested on: patients with prior myocardial infarction (CARE study)
# Assay: CARE: association of SNPs with pravastatin treatment in cardiovascular events prevention (logistic regression, odds ratio pravastatin vs placebo by genotype; Table 8)
# Format: in vivo, human
# Conditions: for Fatal/Non-fatal Atherosclerotic CV Disease, n/total (%) / Hosp. for Cardiovascular Disease, n/total (%) / Total Cardiovascular Disease Events, n/total (%) / Prava vs. Placebo Odds Ratio, 0 Rare Alleles / Prava vs. Placebo Odds Ratio, 1 Rare Alleles / Prava vs. Placebo Odds Ratio, 2 Rare Alleles / Fatal CHD/Definite Non-fatal MI, n/total (%) / Total Coronary Heart Disease Events, n/total (%): All Patients; for Fatal/Non-fatal Atherosclerotic CV Disease, n/total (%) / Hosp. for Cardiovascular Disease, n/total (%) / Total Cardiovascular Disease Events, n/total (%) / Fatal CHD/Definite Non-fatal MI, n/total (%) / Total Coronary Heart Disease Events, n/total (%): Prava; for Stroke, n/total (%): PECAM1 hCV16170911, All Patients, Prava arm
# Text: In order to identify genetic markers associated with acute coronary events (e.g. MI, stroke, unstable angina, congestive heart failure, etc.) or response to statin treatment for the prevention of coronary events, samples from the Cholesterol and Recurrent Events (CARE) study (a randomized multicentral double-blinded trial on secondary prevention of acute coronary events with pravastatin) (Sacks et al., 1991, Am. J. Cardiol. 68: 1436-1446) were genotyped. A well-documented myocardial infarction (MI) was one of the enrollment criteria for entry into the CARE study. Patients were enrolled in the CARE trial from 80 participating study centers. […] Patients were randomized to receive either 40 mg of pravastatin once daily or a matching placebo. The primary endpoint of the trial was death from coronary heart disease and the median duration of follow-up was 5.0 years (range, 4.0 to 6.2 years). […] Secondary endpoints of other related cardiovascular or metabolic disease events, and changes in clinical variables were also recorded in pravastatin-treated and placebo groups. All individuals included in the study had signed a written informed consent form and the study protocol was approved by the respective Institutional Review Boards (IRBs).
# For genotyping SNPs in CARE patient samples, DNA was extracted from blood samples using conventional DNA extraction methods such as the QIA-amp kit from Qiagen. Genotypes were obtained on an ABI PRISM® 7900HT Sequence Detection PCR system (Applied Biosystems, Foster City, Calif.) by kinetic allele-specific PCR, similar to the method described by Germer et al. (Germer S., Holland M. J., Higuchi R. 2000, Genome Res. 10: 258-266).
# Statistical analysis for association of SNPs with pravastatin treatment in cardiovascular events prevention (Table 8) was carried out using an overall logistic regression model that included an intercept, a parameter for the effect of a genotype containing two rare alleles versus a genotype containing no rare alleles, a parameter for the effect of a genotype containing one rare allele versus a genotype containing no rare alleles, a parameter for the effect of use of pravastatin versus the use of placebo, and parameters for the interaction effects between SNP genotypes and pravastatin use. The test of the overall model is a chi-square test with two degrees of freedom for analyses containing all three genotypes, and one degree of freedom for analyses containing two genotypes.
# Effect sizes were estimated through odds ratios (pravastatin group versus placebo) for carriers of each genotype (groups of 0, 1, and 2 minor allele carriers). The effect was considered to be significant if p-value for testing whether any of the interactions between SNP genotypes and pravastatin use were <0.05. […] Odds ratios less than one indicate that the specific SNP allele has a protective effect and odds ratios greater than one indicate that the specific SNP allele has an adverse effect.
# [1] = NPC1 hCV7490135, Cardiovascular Mortality
# [2] = NPC1 hCV7490135, Fatal Atherosclerotic Cardiovascular Disease
# [3] = NPC1 hCV7490135, Fatal/Non-fatal Atherosclerotic CV Disease
# [4] = NPC1 hCV7490135, Hosp. for Cardiovascular Disease
# [5] = NPC1 hCV7490135, Total Cardiovascular Disease Events
# [6] = NPC1 hCV7490135, Total Coronary Heart Disease Events
# [7] = NPC1 hCV25472673, Fatal CHD/Definite Non-fatal MI
# [8] = NPC1 hCV25472673, Fatal/Non-fatal Atherosclerotic CV Disease
# [9] = NPC1 hCV25472673, Hosp. for Cardiovascular Disease
# [10] = NPC1 hCV25472673, Total Cardiovascular Disease Events
# [11] = NPC1 hCV25472673, Total Coronary Heart Disease Events
# [12] = PEMT hCV7443062, Fatal CHD/Definite Non-fatal MI
structure (smiles),measurement,setting,value
CC[C@H](C)C(=O)O[C@H]1C[C@H](O)C=C2C=C[C@H](C)[C@H](CC[C@@H](O)C[C@@H](O)CC(=O)O)[C@H]21 [pravastatin],"Fatal/Non-fatal Atherosclerotic CV Disease, n/total (%)","NPC1 hCV7490135, 2 Rare Alleles, n/total 93/324",(28.7%)
same,"Hosp. for Cardiovascular Disease, n/total (%)","NPC1 hCV7490135, 2 Rare Alleles, n/total 117/324",(36.1%)
same,"Total Cardiovascular Disease Events, n/total (%)","NPC1 hCV7490135, 2 Rare Alleles, n/total 119/324",(36.7%)
same,"Prava vs. Placebo Odds Ratio, 0 Rare Alleles",[1],1.30
same,"Prava vs. Placebo Odds Ratio, 1 Rare Alleles",[1],0.83
same,"Prava vs. Placebo Odds Ratio, 2 Rare Alleles",[1],0.20
same,"Prava vs. Placebo Odds Ratio, 0 Rare Alleles",[2],1.25
same,"Prava vs. Placebo Odds Ratio, 1 Rare Alleles",[2],0.83
same,"Prava vs. Placebo Odds Ratio, 2 Rare Alleles",[2],0.20
same,"Prava vs. Placebo Odds Ratio, 0 Rare Alleles",[3],1.07
same,"Prava vs. Placebo Odds Ratio, 1 Rare Alleles",[3],0.73
same,"Prava vs. Placebo Odds Ratio, 2 Rare Alleles",[3],0.56
same,"Prava vs. Placebo Odds Ratio, 0 Rare Alleles",[4],1.01
same,"Prava vs. Placebo Odds Ratio, 1 Rare Alleles",[4],0.76
same,"Prava vs. Placebo Odds Ratio, 2 Rare Alleles",[4],0.52
same,"Prava vs. Placebo Odds Ratio, 0 Rare Alleles",[5],1.02
same,"Prava vs. Placebo Odds Ratio, 1 Rare Alleles",[5],0.75
same,"Prava vs. Placebo Odds Ratio, 2 Rare Alleles",[5],0.52
same,"Prava vs. Placebo Odds Ratio, 0 Rare Alleles",[6],1.07
same,"Prava vs. Placebo Odds Ratio, 1 Rare Alleles",[6],0.72
same,"Prava vs. Placebo Odds Ratio, 2 Rare Alleles",[6],0.58
same,"Fatal CHD/Definite Non-fatal MI, n/total (%)","NPC1 hCV25472673, 0 Rare Alleles, n/total 65/596",(10.9%)
same,"Total Coronary Heart Disease Events, n/total (%)","NPC1 hCV25472673, 0 Rare Alleles, n/total 193/596",(32.4%)
same,"Fatal/Non-fatal Atherosclerotic CV Disease, n/total (%)","NPC1 hCV25472673, 0 Rare Alleles, n/total 221/596",(37.1%)
same,"Hosp. for Cardiovascular Disease, n/total (%)","NPC1 hCV25472673, 0 Rare Alleles, n/total 262/596",(44.0%)
same,"Total Cardiovascular Disease Events, n/total (%)","NPC1 hCV25472673, 0 Rare Alleles, n/total 274/596",(46.0%)
same,"Fatal CHD/Definite Non-fatal MI, n/total (%)","NPC1 hCV25472673, 1 Rare Allele, n/total 56/664",(8.4%)
same,"Total Coronary Heart Disease Events, n/total (%)","NPC1 hCV25472673, 1 Rare Allele, n/total 186/664",(28.0%)
same,"Fatal/Non-fatal Atherosclerotic CV Disease, n/total (%)","NPC1 hCV25472673, 1 Rare Allele, n/total 213/664",(32.1%)
same,"Hosp. for Cardiovascular Disease, n/total (%)","NPC1 hCV25472673, 1 Rare Allele, n/total 255/664",(38.4%)
same,"Total Cardiovascular Disease Events, n/total (%)","NPC1 hCV25472673, 1 Rare Allele, n/total 259/664",(39.0%)
same,"Fatal CHD/Definite Non-fatal MI, n/total (%)","NPC1 hCV25472673, 2 Rare Alleles, n/total 19/242",(7.9%)
same,"Total Coronary Heart Disease Events, n/total (%)","NPC1 hCV25472673, 2 Rare Alleles, n/total 59/242",(24.4%)
same,"Fatal/Non-fatal Atherosclerotic CV Disease, n/total (%)","NPC1 hCV25472673, 2 Rare Alleles, n/total 68/242",(28.1%)
same,"Hosp. for Cardiovascular Disease, n/total (%)","NPC1 hCV25472673, 2 Rare Alleles, n/total 88/242",(36.4%)
same,"Total Cardiovascular Disease Events, n/total (%)","NPC1 hCV25472673, 2 Rare Alleles, n/total 90/242",(37.2%)
same,"Prava vs. Placebo Odds Ratio, 0 Rare Alleles",[7],1.00
same,"Prava vs. Placebo Odds Ratio, 1 Rare Alleles",[7],0.65
same,"Prava vs. Placebo Odds Ratio, 2 Rare Alleles",[7],0.41
same,"Prava vs. Placebo Odds Ratio, 0 Rare Alleles",[8],1.03
same,"Prava vs. Placebo Odds Ratio, 1 Rare Alleles",[8],0.73
same,"Prava vs. Placebo Odds Ratio, 2 Rare Alleles",[8],0.41
same,"Prava vs. Placebo Odds Ratio, 0 Rare Alleles",[9],1.02
same,"Prava vs. Placebo Odds Ratio, 1 Rare Alleles",[9],0.72
same,"Prava vs. Placebo Odds Ratio, 2 Rare Alleles",[9],0.40
same,"Prava vs. Placebo Odds Ratio, 0 Rare Alleles",[10],1.03
same,"Prava vs. Placebo Odds Ratio, 1 Rare Alleles",[10],0.71
same,"Prava vs. Placebo Odds Ratio, 2 Rare Alleles",[10],0.39
same,"Prava vs. Placebo Odds Ratio, 0 Rare Alleles",[11],1.01
same,"Prava vs. Placebo Odds Ratio, 1 Rare Alleles",[11],0.73
same,"Prava vs. Placebo Odds Ratio, 2 Rare Alleles",[11],0.44
same,"Stroke, n/total (%)",0 Rare Alleles,(1.5%)
same,"Stroke, n/total (%)",1 Rare Allele,(3.1%)
same,"Stroke, n/total (%)",2 Rare Alleles,(0.9%)
same,"Fatal CHD/Definite Non-fatal MI, n/total (%)","PEMT hCV7443062, 0 Rare Alleles, n/total 34/478",(7.1%)
same,"Fatal CHD/Definite Non-fatal MI, n/total (%)","PEMT hCV7443062, 1 Rare Allele, n/total 72/735",(9.8%)
same,"Fatal CHD/Definite Non-fatal MI, n/total (%)","PEMT hCV7443062, 2 Rare Alleles, n/total 34/305",(11.1%)
same,"Prava vs. Placebo Odds Ratio, 0 Rare Alleles",[12],0.42
same,"Prava vs. Placebo Odds Ratio, 1 Rare Alleles",[12],0.87
